Source: patent US20100330049A1, “METHOD FOR GENERATING ISLET BETA CELLS FROM DEDIFFERENTIATED EXOCRINE PANCREATIC CELLS” (Vrije Universiteit Brussel, priority 2008, published 2010)

Experiments:
Assay type in all cases: cell-based, rat
[1] = test system: acinar cells; experiment: acinar-to-beta cell conversion in monolayer culture with differentiation factors (immunocytochemical cell counts); details: for toxic effects on the epithelial monolayers: Jagged1 2 μg/ml, Dll4 5 μg/ml, 3 days culture; for beta cell neogenesis (acino-insular conversion): exposure of EGF and LIF treated cells to Notch1 ligands; for expression of Ngn3, Pdx1 and insulin / reduction of the number of newly formed beta cells: ligands immobilized on culture plates, EGF/LIF-treated acinar cells; for expression of Pdx1 during 72 h exposure to EGF and LIF (FIG. 2C) / expression of insulin during 72 h exposure to EGF and LIF (FIG. 2E) / re-expression of Ngn3 during 72 h exposure to EGF and LIF (FIG. 2A): n=7, compared to EGF and LIF controls
Description: Male 10-12 week old Wistar rats (Charles River Laboratories) weighing 250-300 g were used for the isolation of cells from the pancreas. Pancreata were partially dissociated with collagenase and exocrine acini were purified by centrifugal elutriation as published before (Rooman et al., 2000 Diabetologia 43:907-914). All animal experimentation was approved by the Ethical Committee of the Free University of Brussels.
Acinar cells were pre-cultured for 4 days in bacteriological Petri dishes (Nunc) in suspension culture in RPMI-1640 Glutamax-I medium supplemented with 10% fetal bovine serum (FBS, Invitrogen), penicillin (75 mg/l) (Continental Pharma) and antibiotics (Sigma, St Louis, Mo., USA). Geneticin Sulphate (50 μg/ml) (Sigma) was used to suppress fibroblast overgrowth in the culture. Medium was replaced daily during this pre-culture period. At the end of the pre-culture, cells were treated with alloxan (10 mM, Sigma) for 10 min at 37° C. to remove contaminating beta cells, and transferred to 24-well plates (Falcon, BD Biosciences) to form adherent cultures. Adherent monolayers were further cultured with RPMI supplemented with 1% FBS and antibiotics (controls). For growth factor stimulation of neogenesis this medium was supplemented with 50 ng/ml human recombinant epidermal growth factor (EGF) (Sigma,) and 40 ng/ml recombinant mouse leukemia inhibitory factor (LIF) (Sigma) (Baeyens et al. Diabetologia 48:49-57.). Stimulation of Notch signal transduction was performed using the recombinant human ligands Jagged1 (2 μg/ml, R&D Systems) and Dll4 (5 μg/ml, R&D Systems). For effective stimulation, the ligands were immobilized to the bottom of the multiwell plates prior to monolayer formation. Cell monolayers were analyzed after a culture period of 3 days in the latter media. […] Notch signaling inhibition was achieved using a recombinant form of the rat Notch1 extracellular domain (Notch1-EC, 10 μg/ml, R&D Systems). […] Proliferation was performed by bromo-deoxyuridin (BrdU) (Sigma) pulse labeling of 6 hours.
Immunocytochemical staining of the monolayers was performed directly in the 24-well plates. For this purpose, the cell monolayers were fixed for 10 min with 4% buffered formaldehyde followed by 20 min methanol (−20° C.) for cell permeabilization. Tissues were fixed with the same fixative for 4 hours and processed for paraffin embedding. Paraffin sections were used for immunostaining as described (Bouwens et al. 1994 Diabetes 43:1279-1283). Primary antibodies used in this study are polyclonal anti-insulin (C. Van Schravendijk, VUB, Brussels) (Bouwens et al. 1994 Diabetes 43:1279-1283; Bouwens and De 1996. J. Histochem. Cytochem. 44:947-951), polyclonal anti-rat C-peptide-I (O. D. Madsen, Hagedorn Research Institute, Gentofte, Denmark) (Blume et al. 1992. Mol. Endocrinol. 6:299-307), polyclonal anti-Pdx1 (O. D. Madsen) (Rooman et al. 2000 Diabetologia 43:907-914), polyclonal anti-Ngn3 (Schwitzgebel et al. 2000. Development 127:3533-3542), monoclonal anti-cytokeratin-20 (CK20) (Novocastra) (Bouwens et al. 1994 Diabetes 43:1279-1283; Bouwens and De 1996 J. Histochem. Cytochem. 44:947-951), monoclonal anti-synaptophysin (Novocastra), polyclonal anti-MafA (Bethyl Laboratories) (Nishimura et al. 2006 Dev. Biol. 293:526-539), polyclonal anti-Glut2 (Wak-Chemie), polyclonal anti-Mist1 (SF Konieczny) (Pin et al. 2000 Anat. Rec. 259:157-167), polyclonal anti-luciferase (Promega Benelux B. V.), polyclonal anti-IAPP (Advanced Chemtech), polyclonal anti-ChromograninA (Tebu-Bio), anti-BrdU (MP Biomedicals) and polyclonal anti-α-amylase (Sigma). Secondary antibodies conjugated with fluorescein isothiocyanate, tetramethylrodamine isothiocyanate or Cy5 (Jackson Immunoresearch) were used as described previously (Gu et al., 2002 Development 129:2447-2457). DNA was visualized using Hoechst 33342 (Invitrogen).

[2] = test system: Hes1 mRNA; experiment: knockdown efficiency of shRNA viruses, quantitative RT-PCR: Hes1 mRNA; details: corrected for actin, normalized to control virus Le-Scrambled-DsRed, n = 3
Description: (§1) Specific RNAi target sequences were developed using dedicated software available through the Whitehead Institute for Biomedical Research website (http://jura.wi.mit.edu/bio/) (Yuan et al. 2004 Nucleic Acids Res. 32:W130-W134). Corresponding oligo DNA molecules (Invitrogen) were cloned in the BglII and HindIII sites of the pSuper.basic vector (Oligoengine). Insert-containing clones were PCR-selected and sequenced. DNA from clones containing correct inserts was cut with EcoRI-ClaI, which released a DNA fragment containing the H1 promoter and the cloned oligo duplex, which was subsequently subcloned in the EcoRI-ClaI sites of the pTrip vector containing a DsRed reporter (Wiznerowicz and Trono 2003, J. Virol. 77:8957-8961). Screening for RNAi activity of the constructs was performed as follows: AR42J-B13 cells were plated at 70% confluency in 24 well plates at day 0. After allowing the cells to attach, 500 ng DNA of the appropriate pTrip constructs was transfected per well. After an additional 24 hours, cells were processed for quantitative RT-PCR analysis, in which 500 ng total RNA was used per condition.
(§2) The data illustrated in Table 7 represent the efficiency of knockdown of the different shRNA viruses, measured by quantitative RT-PCR. All samples are corrected for RNA input (endogenous control: actin) and normalized to conditions transduced with control virus (Le-Scrambled-DsRed). […]

[3] = test system: Notch1 mRNA; experiment: knockdown efficiency of shRNA viruses, quantitative RT-PCR: Notch1 mRNA; details: corrected for actin, normalized to control virus Le-Scrambled-DsRed, n = 3
Description: as §1, §2

| Substance | toxic effects on the epithelial monolayers [1] | beta cell neogenesis (acino-insular conversion) [1] | expression of Ngn3, Pdx1 and insulin [1] | reduction of the number of newly formed beta cells [1] [%] | expression of Pdx1 during 72 h exposure to EGF and LIF (FIG. 2C) [1] | expression of insulin during 72 h exposure to EGF and LIF (FIG. 2E) [1] | re-expression of Ngn3 during 72 h exposure to EGF and LIF (FIG. 2A) [1] | Hes1 mRNA expression (Mean ± SEM) [2] | Notch1 mRNA expression (Mean ± SEM) [3] | higher number of insulin-positive cells ([1]; Notch1-EC added to EGF and LIF) [fold] | cells adopting a beta cell phenotype ([1]; acinar cell culture, 0.5% in control conditions) | proportion of cells positive for Ngn3, Pdx1 and insulin ([1]; excess Notch1-EC in culture medium with EGF and LIF) |
| --- | --- | --- | --- | --- | --- | --- | --- | --- | --- | --- | --- | --- |
| Dll4: recombinant human Notch ligand, immobilized to the plate bottom | no toxic effects | near complete abrogation | strongly inhibited | 80 | prevents this expression | prevents this expression | almost completely abrogates this pattern |  |  |  |  |  |
| Jagged1: recombinant human Notch ligand, immobilized to the plate bottom | no toxic effects | near complete abrogation | strongly inhibited | 80 | prevents this expression | prevents this expression | almost completely abrogates this pattern |  |  |  |  |  |
| Le-Scrambled-DsRed: negative control RNAi lentivirus, shScrambled GGUAUCUACUAGAUGUACU (SEQ ID NO:3), DsRed reporter |  |  |  |  |  |  |  | 100.0 ± 0.0 | 100.0 ± 0.0 |  |  |  |
| Notch1-EC: recombinant form of the rat Notch1 extracellular domain, Notch signaling inhibitor (R&D Systems) |  |  |  |  | amplifies the number of cells expressing Pdx1 | amplifies the number of insulin-positive cells | enhances the potency of the differentiation factors |  |  | 3 | more than 30% | marked increase |
